Experimental data from patent US20120148510A1, “Compositions and Methods for Improving the Appearance of Facial Pores” (priority 2010, published 2012).
Values joined by “and” are separate entries in the source; they are usually repeats but may differ in a detail not shown here. Equal values may be shown once.

Columns and labels:
IL-1 beta = test: IL-1 inhibition assay (ICAM-1 promoter/luciferase reporter in ECV304 cells); type: cell-based, Human; settings: 5% concentration of hexyldecanol diluted to 0.05%; four replicates; 10 U/ml IL-1 beta, 4 hours
Procedure: A. IL-1 Inhibition Assay Protocol
One vial of Human ECV304 cells stably transfected with human ICAM-1 promoter/luciferase reporter construct (pGL3 basic plasmid) and CMV-βgal/RSV-neo plasmid DNA (clone E1.3-22) is placed in a 75 cm flask with 15 ml of complete maintenance media defined as follows: M199 (Gibco, cat #11150-059, 1× liquid, 500 ml containing Earle's salts, Na bicarbonate, and L-glutamine), 10% FBS (certified, heat-inactivated from Gibco, cat #10082-147), 10 ug/ml gentamicin (Gibco, cat #15710-015—10 mg/ml soln (1000×), and 250 μg/ml geneticin antibiotic (active G418 from Gibco, cat 10131-035-50 mg/ml soln).
When cells are 85-90% confluent remove media. Dilute (10×) trypsin-EDTA (Gibco cat #15400-039) to (1×) with HBSS and add 3 ml of (1×) trypsin-EDTA to flask and rinse. Remove trypsin and add a fresh 3 ml/flask and incubate 3-4 min. Strike end of flask to detach cells, and then add 6 ml of complete maintenance medium thoroughly washing the flask and place liquid in a conical tube. Then rinse each flask with an additional 3 ml of maintenance media. Spin tube at 200×g (approx 900 rpm for centrifuge in 3N066B) for 7 minutes. Aspirate supernatant and resuspend cells in 10 ml of maintenance media. Place 10 ul of cell suspension into a hemocytometer and count cells in 5 squares. Use following equation—total# of cells counted ×dilution×104/# of squares counted=cells/ml. […]

[1] = system: HAS-2 gene (Hyaluronic Acid Synthase-2 gene); test: Hyaluronic Acid (HA) Synthase expression, keratinocyte culture, Affymetrix GeneChip microarray; type: cell-based; settings: 10 micro molar hexyldecanol; human telomerized keratinocytes; 6 hours exposure; six GeneChips; p-value=0.0366
Procedure: B. Hyaluronic Acid (HA) Synthase Expression
Individual experiments (referred to as batches) are generally comprised of 60 Affymetrix GeneChips® (referred to as “instances”) containing 6 vehicle control samples, 2 positive control samples and 52 individual test material samples. Duplication of test materials is performed across batches. In vitro testing is performed in 6-well plates to provide sufficient RNA for GeneChip® analysis (2-4 ug total RNA yield/well). Human telomerized keratinocytes are grown in EpiLife® media with 1× Human Keratinocyte Growth Supplement (Invitrogen) on collagen I coated cell culture flasks and plates (Becton Dickinson). Cells are seeded into 6-well plates at 20,000 cells/cm2 24 hours before chemical exposure. At t=−24 hours cells are trypsinized from T-75 flasks and plated into 6-well plates in basal growth medium. At t=0 media is removed and replaced with the appropriate dosing solution as per the experimental design. Dosing solutions are prepared the previous day in sterile 4 ml Falcon snap cap tubes. After 6 hours of chemical exposure cells are viewed and imaged. […]
2. Transcriptional Screening—RNA Analyzed with Gene Chips […]
Data quality was determined using a variety of statistical measures, including t-tests, scatter biplots, and principal components analysis, depending upon the source and character of the data. […]

facial pores = test: 9 week in vivo split face study, Pore Area Fraction by image analysis; set-up: species or system human; settings: vehicle + 5% Hexyldecanol, twice daily topical on face, 8 weeks, upper cheek area, FIG. 1
Procedure: A 9 week in vivo study was conducted using a round robin, vehicle controlled, split face design including a 1 week normalization period with 330 subjects.
Treatment Regimen—The regimen begins with a one week washout period. Each morning the subject is to wash their face with a suitable cleanser (e.g., Olay Natural Science Deep Purify Cleanser, available from The Procter & Gamble Company, Cincinnati, Ohio), gently dry with a towel, apply a stock moisturizer (e.g., Vehicle as described in Table 2 with 3% glycerine, no panthenol, and 0.3% disodium EDTA) to the appropriate side of the face, wait 5 minutes, and then apply a UV blocking lotion (e.g., Olay Complete All Day Moisturizing Lotion SPF 15, available from The Procter & Gamble Company, Cincinnati, Ohio). […]
Images of the facial treatment sites are captured at baseline (week 0), and after 4 and 8 weeks of treatment and analyzed for changes to facial pores. […]
The region of interest (ROI), in this case the upper cheek area, was marked manually based on 12 predefined facial landmarks around the cheek—for example, corners of the eye, bridge of the nose, corners of the mouth. The degree of facial pores in the ROI were quantified objectively using image analysis algorithms based on an Optimus software platform. […]

`CCCCCCCCC(CO)CCCCCC` (stereo not drawn) [Hexyldecanol, 2-hexyldecan-1-ol] was tested, and the “reduction of IL-1 stimulatory activity” value (IL-1 beta) was 24% and 18% (2×) and 21%, the “HAS-2 gene transcriptional expression level, average fold change” value [1] was 1.336 fold change and the “reduction of Pore Area Fraction versus vehicle control” value (facial pores) was “significantly (p<=0.10) reducing Pore Area Fraction better than the control”.
